EP4620956A1, “PARP1 INHIBITORS” (Zhejiang Yangli Pharmaceutical Technology Co., Ltd., priority 2022, dated 2024)
Where two headings read alike, the source gives them in different places.

Experiments:
[1] = biological target: T1, PARP1 (Homo sapiens, UniProt P09874); test: DNA trapping capability of PARP1 (HTRF); type: biochemical
T1 construct: purchased BPS 80501

[2] = test system: DLD-1 BRCA2^-/-; test: Anti-proliferative activity (CellTiter-Glo, 7 days), DLD-1 BRCA2-/-; type: cell-based, human; conditions: for BRCA2 mutation/WT selectivity fold: DLD-1 WT vs DLD-1 BRCA2^-/-; for IC50: Homo sapiens, DLD-1, 168 h, BRCA2-mutated, 7 days
[3] = test system: DLD-1 WT; test: Anti-proliferative activity (CellTiter-Glo, 7 days), DLD-1 WT; type: cell-based, human; conditions: for inhibition on cell proliferation at the highest concentration: BRCA2-normal DLD-1 cell line, 10 µM; for IC50: Homo sapiens, DLD-1, 168 h, BRCA2-normal, 7 days
Description: The anti-proliferation experiment of the compounds on tumour cells adopted the most widely used ATP concentration-based detection method at present. MDA-MB-231 and MDA-MB-436 cell lines were obtained from ATCC, DLD-1 human colourectal adenocarcinoma epithelial cells and DLD-1 BRCA2^-/- cells were obtained from Horizon, and the cells were revived. After the cells were stable, the cells were collected. When the viable cell count exceeded 90%, 450-500 cells were seeded into a 384-well plate. The next day, the example compounds with serially diluted concentrations were added. Only buffer was added to the Max well, and 50 µM AZD2281 was added to the Min well. The plate was incubated for 7 days, and on the eighth day, CellTiter-Glo® reagent (Promega, G7573) was added. The plate was incubated at room temperature for 30 minutes, and the values were read on Envision (PE). The inhibition rate was calculated using the fluorescence values from the Max and Min wells, and the dose-response curve was fitted using the analysis software GraphPad Prism 5 to obtain the IC50 value of each compound for the enzyme activity.

[4] = biological target: T1, PARP1; test: Inhibition of PARP1 enzyme activity (chemiluminescence); type: biochemical; conditions: for PARP1/2 selectivity fold: PARP2 vs PARP1
[5] = biological target: T2, PARP2 (Homo sapiens, UniProt Q9UGN5); test: DNA trapping capability of PARP2 (HTRF); type: biochemical
T2 construct: purchased BPS 80502

[6] = test system: A549 WT; test: Cellular PARylation inhibition, high-content imaging, A549 WT; type: cell-based; conditions: Homo sapiens, PARylation at the cellular level
Description: The inhibitory effect of the compounds on PARP1/PARP2 enzyme activity at the cellular level was detected using high-content imaging. A549 WT, PARP1-KO and PARP2-KO cell lines were established in-house, and the cells were revived. After the cells were stable, a sufficient number of cells were collected and 100 µL of the cell suspension was seeded into a 96-well plate. The next day, the example compounds with serially diluted concentrations were added. […] The plate was incubated for 1.5 hours (A549 WT and PARP2-KO cell lines) or 2 hours (PARP1-KO cell line). After removing the supernatant, 0.4 mM H2O2 was added and incubation was carried out for 10 minutes (A549 WT and PARP2-KO cell lines) or 1.5 mM H2O2 was added and incubation was carried out for 15 minutes (PARP1-KO cell line) to induce extensive cellular DNA damage. After removing the supernatant, the cells were fixed with 4% paraformaldehyde for 20 minutes, followed by treatment with 0.5% Triton X-100 for 20 minutes to increase the permeability of the cell membrane. After that, the cells were incubated with 3% BSA for 1 hour to prevent non-specific binding. […] The cell nuclei were stained for 30 minutes by adding 50 µL DAPI (invitrogen, R37606). After washing twice with PBS, images were acquired on OPERETTA CLS™ (PE) by scanning the cells under a 20x water objective lens in non-confocal mode, with 5 fields of view captured per well. […] The inhibition rate was calculated using the fluorescence values from the Max and Min wells, and the dose-response curve was fitted using the analysis software GraphPad Prism 5 to obtain the IC50 value of each compound for the enzyme activity.

[7] = test system: A549 PARP1-KO cell lines; test: Cellular PARylation inhibition, high-content imaging, PARP1-KO; type: cell-based; conditions: for inhibition on the enzyme activity at the highest concentration: A549 PARP1-KO cell lines, 40 µM; for IC50: Homo sapiens, A549, PARylation at the cellular level
[8] = test system: MDA-MB-436; test: Anti-proliferative activity (CellTiter-Glo, 7 days), MDA-MB-436; type: cell-based, human; conditions: for IC50: Homo sapiens, MDA-MB-436, 168 h, BRCA1-mutated, 7 days, read-out: MDA-MB-436 IC50; for BRCA1 mutation/WT selectivity fold: MDA-MB-231 vs MDA-MB-436
[9] = test system: MDA-MB-231; test: Anti-proliferative activity (CellTiter-Glo, 7 days), MDA-MB-231; type: cell-based, human; conditions: for IC50: Homo sapiens
[10] = biological target: T2, PARP2; test: Inhibition of PARP2 enzyme activity (chemiluminescence); type: biochemical
[11] = test system: A549 PARP2-KO cell line; test: Cellular PARylation inhibition, high-content imaging, PARP2-KO; type: cell-based; conditions: PARylation at the cellular level; for IC50: Homo sapiens, A549, read-out: PARP2-KO IC50
[12] = MDA-MB-231, 168 h, BRCA1-normal, 7 days, read-out: MDA-MB-231 IC50

T1 sequence (P09874 whole entry): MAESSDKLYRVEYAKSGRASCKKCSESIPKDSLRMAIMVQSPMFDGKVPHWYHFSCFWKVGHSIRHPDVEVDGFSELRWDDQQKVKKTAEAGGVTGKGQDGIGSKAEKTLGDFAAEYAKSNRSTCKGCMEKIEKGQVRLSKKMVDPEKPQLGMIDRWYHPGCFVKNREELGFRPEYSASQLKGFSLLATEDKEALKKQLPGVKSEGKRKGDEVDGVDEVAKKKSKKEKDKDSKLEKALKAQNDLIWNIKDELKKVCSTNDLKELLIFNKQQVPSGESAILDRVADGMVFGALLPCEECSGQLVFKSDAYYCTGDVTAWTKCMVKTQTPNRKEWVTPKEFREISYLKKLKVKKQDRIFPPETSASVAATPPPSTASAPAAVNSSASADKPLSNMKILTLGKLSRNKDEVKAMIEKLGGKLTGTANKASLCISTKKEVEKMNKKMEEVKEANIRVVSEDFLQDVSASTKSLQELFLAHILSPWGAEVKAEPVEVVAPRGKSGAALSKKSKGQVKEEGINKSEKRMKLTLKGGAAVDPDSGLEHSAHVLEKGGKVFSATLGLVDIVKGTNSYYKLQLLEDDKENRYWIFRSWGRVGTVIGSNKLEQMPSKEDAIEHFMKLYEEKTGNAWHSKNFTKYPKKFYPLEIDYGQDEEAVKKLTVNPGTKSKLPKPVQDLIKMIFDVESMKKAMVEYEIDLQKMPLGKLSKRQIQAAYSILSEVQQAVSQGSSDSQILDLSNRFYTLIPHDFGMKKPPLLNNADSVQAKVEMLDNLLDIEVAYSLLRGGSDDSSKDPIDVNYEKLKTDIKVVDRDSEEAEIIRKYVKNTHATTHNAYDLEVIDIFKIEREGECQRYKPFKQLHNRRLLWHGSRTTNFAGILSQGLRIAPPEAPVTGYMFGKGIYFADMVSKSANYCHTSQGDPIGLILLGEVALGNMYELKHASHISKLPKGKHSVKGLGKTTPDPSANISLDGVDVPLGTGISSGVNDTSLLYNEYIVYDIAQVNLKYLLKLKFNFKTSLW
T2 sequence (Q9UGN5 whole entry): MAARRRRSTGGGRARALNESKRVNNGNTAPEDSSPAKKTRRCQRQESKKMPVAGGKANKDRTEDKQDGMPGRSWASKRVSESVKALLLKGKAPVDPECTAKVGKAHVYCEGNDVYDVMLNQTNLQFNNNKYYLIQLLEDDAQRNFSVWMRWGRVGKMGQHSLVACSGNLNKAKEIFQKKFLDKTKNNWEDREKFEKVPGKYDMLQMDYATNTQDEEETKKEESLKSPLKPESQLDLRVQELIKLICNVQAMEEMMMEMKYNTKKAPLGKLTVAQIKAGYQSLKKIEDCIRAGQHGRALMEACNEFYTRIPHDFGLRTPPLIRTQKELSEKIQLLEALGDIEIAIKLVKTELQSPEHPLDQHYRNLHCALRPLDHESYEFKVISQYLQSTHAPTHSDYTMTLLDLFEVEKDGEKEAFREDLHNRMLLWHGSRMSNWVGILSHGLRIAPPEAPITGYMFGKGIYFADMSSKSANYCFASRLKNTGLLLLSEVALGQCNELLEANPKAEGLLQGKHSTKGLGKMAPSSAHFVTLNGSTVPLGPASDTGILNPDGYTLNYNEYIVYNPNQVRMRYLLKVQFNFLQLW

| PARP1/2 selectivity fold [1] [fold] | Structure (SMILES) | EC50 [1] [nM] | BRCA2 mutation/WT selectivity fold [2] | IC50 [2] [nM] | inhibition on cell proliferation at the highest concentration [3] | IC50 [3] [nM] | IC50 [4] [nM] | PARP1/2 selectivity fold [4] [fold] | EC50 [5] [nM] | IC50 [6] [nM] | inhibition on the enzyme activity at the highest concentration [7] | IC50 [7] [nM] | IC50 [8] [nM] | BRCA1 mutation/WT selectivity fold [8] | inhibition on cell proliferation at the highest concentration ([9]; BRCA1-normal MDA-MB-231 cell line, 10 µM) | IC50 [9, 12] [nM] | IC50 [10] [nM] | IC50 [11] [nM] | PARP1 KO/PARP2 KO selectivity fold [11] [fold] | IC50 ([9]; BRCA1-normal MDA-MB-231 cell line, read-out: IC50) [nM] |
| --- | --- | --- | --- | --- | --- | --- | --- | --- | --- | --- | --- | --- | --- | --- | --- | --- | --- | --- | --- | --- |
| – | CCc1c(N)c2ncc(CN3CCN(c4ccc(C(=O)NOC)nc4F)CC3)cc2[nH]c1=O [Example 2, 5-(4-((8-Amino-7-ethyl-6-oxo-5,6-dihydro-1,5-naphthyridin-3-yl)methyl)piperazin-1-yl)-6-fluoro-N-methoxypicolinamide] | 3.73 | >1,162 fold | 8.62 | no detectable inhibition | > 10000 | 0.39 | 44 | 338 | 10.5 | no detectable inhibition | > 40000 | 5.74 | >1,742 fold | no detectable inhibition | > 10000 | 17 | 61.7 | >648 | – |
| 64 | CCc1c(N)c2ncc(CN3CCN(c4ccc(C(=O)NC)nc4F)CC3)cc2[nH]c1=O [Example 3, 5-(4-((8-Amino-7-ethyl-6-oxo-5,6-dihydro-1,5-naphthyridin-3-yl)methyl)piperazin-1-yl)-6-fluoro-N-methylpicolinamide] | 3.87 | >1,972 fold | 5.07 | no detectable inhibition | > 10000 | 0.41 | 21 | 249 | 5.9 | no detectable inhibition | > 40000 | 1.27 | 5,828 fold | – | 7400 | 8.7 | 16.2 | >2468 | 7400 |
